According to patent US9345742B2, “Aminostatin derivatives for the treatment of arthrosis” (MERCK PATENT GMBH, priority 2011, dated 2016):
Numbered stars: 1 amine (or outer) side, 2 acyl side, 3 side chain; on linkers, the order of the positions; unused ones are H or OH. Square brackets hold non-standard residues; d marks the D form. Peptide text beside a SMILES is read from it. * marks the point of attachment. X1 = N[C@@H](CC(=O)[*:2])[C@H](Cc1ccccc1)N[*:1]; 1Nal = N[C@@H](Cc1cccc2ccccc12)C(=O)O; Isovaleryl = CC(C)CC(=O)*

Experiments:
recombinant human renin = recombinant human renin (Homo sapiens (Human), UniProt P00797); assay: In-vitro fluorescence assay for identification of renin-inhibitory activity; format: biochemical; details: recombinant human renin 10 nM, pH 7.2; read-out: Renin selectivity IC50
Procedure: In order to identify modulators of renin activity, a continuous enzymatic test was carried out with a synthetic peptide which carries a fluorescent group Edans (=(5-(aminoethyl)aminonaphthalenesulfonate) which is quenched by energy transfer from a Dabcyl (4′-dimethylaminoazobenzene-4-carboxylate) group on the same molecule, in Greiner 384-well microtitre plates. Cleavage of the peptidic substrate by renin causes an increase in the fluorescence intensity. In order to determine the efficacy of substances, the time-dependent increase in the fluorescence intensity in the presence of the substance was compared with the time-dependent increase in fluorescence in the absence of substances. The reference substance used was renin inhibitor 2 (Z-Arg-Arg-Pro-Phe-His-Sta-Ile-His N-Boc-Lys methyl ester Z) (Sigma-Aldrich). The substrate used was renin FRET substrate I (DABCYL-g-Abu-[…]EDANS) (Anaspec, Fremont Calif.). The enzyme employed was recombinant human renin (Proteos, Kalamazoo, Mich.) in a final concentration of 10 nM. The test was carried out in 50 mM Mops buffer, 1.5% (v/v) of DMSO, 0.1% (w/v) of Igepal®, pH 7.2, 0.5% (w/v) of BSA. 2 μl of each substance solution with serially diluted substance concentration were added to in each case 4 μl of renin solution and incubated at room temperature for 15 min. The reaction was started by addition of 4 μl of substrate solution (final concentration 5 μM). After carrying out a starting-point fluorescence measurement (excitation wavelength 340 nm/emission wavelength 495 nm) using an Envision multilabel reader (Perkin Elmer), the reaction was incubated at 37° C. for 60 min. The amount of peptide fragment cleaved off during the reaction time was subsequently measured by determination of the increase in the fluorescence intensity at 495 nm (excitation wavelength 340 nm).

[1] = target: cathepsin D isolated from the human liver (Homo sapiens (Human), UniProt P07339); assay: In-vitro fluorescence assay for identification of cathepsin D inhibitors; format: biochemical; details: cathepsin D 1.4 nM, pH 5.5; read-out: CatD assay IC50-
Procedure: In order to identify modulators of cathepsin D activity, a continuous enzymatic test was carried out with a synthetic peptide which carries a fluorescent group (MCA=(7-methoxycoumarin-4-yl)acetyl) which is quenched by energy transfer from a Dpn (2,4 dinitrophenyl) group on the same molecule, in Greiner 384-well nb microtitre plates. Cleavage of the peptidic substrate by cathepsin D causes an increase in the fluorescence intensity. In order to determine the efficacy of substances, the time-dependent increase in the fluorescence intensity in the presence of the substance was compared with the time-dependent increase in fluorescence in the absence of substances. The reference substance used was pepstatin A (Sigma-Aldrich). The substrate used was […](Dnp)d-R—NH2 (Enzo Life Sciences, Lörrach). The enzyme employed was cathepsin D isolated from the human liver (Sigma-Aldrich) in a final concentration of 1.4 nM. The test was carried out in 100 mM sodium acetate buffer, 1.25% (v/v) of DMSO, 0.25% (w/v) of Chaps, pH 5.5. 2 μl of each substance solution with serially diluted substance concentration were added to in each case 4 μl of cathepsin D solution and incubated at room temperature for 10 min. The reaction was started by addition of 2 μl of substrate solution (final concentration 5 μM). After carrying out a starting-point fluorescence measurement (excitation wavelength 340 nm/emission wavelength 450 nm) using an Envision multilabel reader (Perkin Elmer), the reaction was incubated at room temperature for 60 min. The amount of peptide fragment cleaved off during the reaction time was subsequently measured by determination of the increase in the fluorescence intensity at 450 nm (excitation wavelength 340 nm).

cathepsin D isolated from the human liver, sequence (P07339 65-161): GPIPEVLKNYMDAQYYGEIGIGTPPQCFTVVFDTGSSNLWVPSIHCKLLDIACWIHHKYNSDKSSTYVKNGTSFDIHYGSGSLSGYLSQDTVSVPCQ
cathepsin D isolated from the human liver, sequence (P07339 169-412): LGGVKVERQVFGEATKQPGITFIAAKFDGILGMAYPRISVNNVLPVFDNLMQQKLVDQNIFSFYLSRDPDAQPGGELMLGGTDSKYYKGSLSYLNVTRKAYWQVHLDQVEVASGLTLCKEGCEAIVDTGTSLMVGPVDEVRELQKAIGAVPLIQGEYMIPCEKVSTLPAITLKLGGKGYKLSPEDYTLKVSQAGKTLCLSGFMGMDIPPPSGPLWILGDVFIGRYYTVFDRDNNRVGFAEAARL
recombinant human renin, sequence (P00797 67-406): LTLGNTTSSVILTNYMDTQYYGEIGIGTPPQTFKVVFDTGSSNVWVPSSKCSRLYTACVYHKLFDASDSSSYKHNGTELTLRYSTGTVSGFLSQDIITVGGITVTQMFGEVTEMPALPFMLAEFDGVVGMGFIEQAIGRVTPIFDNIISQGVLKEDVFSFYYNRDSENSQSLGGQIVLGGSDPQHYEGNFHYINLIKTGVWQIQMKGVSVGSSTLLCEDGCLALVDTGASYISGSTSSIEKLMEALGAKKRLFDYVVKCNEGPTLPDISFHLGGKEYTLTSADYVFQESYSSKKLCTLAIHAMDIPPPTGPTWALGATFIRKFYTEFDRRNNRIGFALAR

| Structure (SMILES) | IC50 (recombinant human renin) | IC50 [1] |
| --- | --- | --- |
| COC(=O)[C@@H](NC(=O)[C@H](Cc1cccc2ccccc12)NC(=O)C[C@H](N)[C@H](Cc1ccccc1)NC(=O)[C@@H](NC(=O)[C@H](CC(C)C)NC(=O)CC(C)C)C(C)C)C(C)C [Compound 28, Methyl (S)-2-[(S)-2-((3S,4S)-3-amino-4-{(S)-3-methyl-2-[(S)-4-methyl-2-(3-methyl-butyrylamino)pentanoylamino]butyryl-amino}-5-phenylpentanoylamino)-3-naphthalen-1-ylpropionylamino]-3-methylbutyrate] (Isovaleryl-LV[X1][1Nal]V-OMe) | > 30000 nM | 3.7 nM |
| CC[C@H](C)[C@H](NC(=O)C[C@H](N)[C@H](Cc1ccccc1)NC(=O)[C@@H](NC(=O)Cc1cccc(OC(F)(F)F)c1)C(C)C)C(=O)N[C@H](C(=O)OC)C(C)C [Compound 7, Methyl (S)-2-[(2S,3S)-2-((3S,4S)-3-amino-4-{(S)-3-methyl-2-[2-(3-trifluoromethoxy-phenyl)acetylamino]butyrylamino}-5-phenylpentanoylamino)-3-methyl-pentanoylamino]-3-methylbutyrate] | > 30000 nM | 18 nM |
| CC[C@H](C)[C@H](NC(=O)C[C@H](N)[C@H](Cc1ccccc1)NC(=O)[C@@H](NC(=O)[C@H](CC(C)C)NC(=O)CC(C)C)C(C)C)C(=O)NCc1ccccc1 [Compound 29, N-((1S,2S)-1-Benzylcarbamoyl-2-methylbutyl)-(S)-3-amino-4-{(S)-(S)-3-methyl-2-[(S)-4-methyl-2-(3-methylbutyrylamino)-pentanoylamino]butyrylamino}-5-phenylpentanamide] | > 30000 nM | 180 nM |
| CC[C@H](C)[C@H](NC(=O)C[C@H](N)[C@H](Cc1ccccc1)NC(=O)[C@@H](NC(=O)[C@H](CC(C)C)NC(=O)CC(C)C)C(C)C)C(=O)N[C@@H](CC(C)C)C(=O)OC [Compound 14, Methyl (S)-2-[(2S,3S)-2-((S)-3-(S)-amino-4-{(S)-3-methyl-2-[(S)-4-methyl-2-(3-methyl-butyrylamino)pentanoylamino]butyryl-amino}-5-phenylpentanoylamino)-3-methylpentanoylamino]-4-methylpentanoate] (Isovaleryl-LV[X1]IL-OMe) | > 30000 nM | 160 nM |
| COC(=O)[C@@H](NC(=O)[C@H](Cc1ccccc1)NC(=O)C[C@H](N)[C@H](Cc1ccccc1)NC(=O)[C@@H](NC(=O)[C@H](CC(C)C)NC(=O)CC(C)C)C(C)C)C(C)C [Compound 15, Methyl (S)-2-[(S)-2-((3S,4S)-3-amino-4-{(S)-3-methyl-2-[(S)-4-methyl-2-(3-methyl-butyrylamino)pentanoylamino]butyryl-amino)-5-phenylpentanoylamino)-3-phenyl-propionylamino]-3-methylbutyrate] (Isovaleryl-LV[X1]FV-OMe) | > 30000 nM | 5.7 nM |
| CC[C@H](C)[C@H](NC(=O)C[C@H](N)[C@H](Cc1ccccc1)NC(=O)[C@H](Cc1ccccc1)NC(=O)[C@H](CC(C)C)NC(=O)CC(C)C)C(=O)N[C@H](C(=O)OC)C(C)C [Compound 11, Methyl (S)-2-[(2S,3S)-2-((3S,4S)-3-amino-4-{(S)-2-[(S)-4-methyl-2-(3-methylbutyrylamino)pentanoylamino]-3-phenyl-propionylamino}-5-phenylpentanoylamino)-3-methylpentanoylamino]-3-methyl-butyrate] (Isovaleryl-LF[X1]IV-OMe) | > 30000 nM | 610 nM |
| CC[C@H](NC(=O)[C@H](CC(C)C)NC(=O)CC(C)C)C(=O)N[C@@H](Cc1ccccc1)[C@@H](N)CC(=O)NCCc1ccc(Cl)c(Cl)c1 [Compound 6, N-[2-(3,4-Dichlorophenyl)ethyl]-(3S,4S)-3-amino-4-{(S)-2-[(S)-4-methyl-2-(3-methyl-butyrylamino)pentanoylamino]butyryl-amino}-5-phenylpentanamide] | > 30000 nM | 1200 nM |

Other lines, results leading:

| IC50 (recombinant human renin) | IC50 [1] | Structure (SMILES) |
| --- | --- | --- |
| > 30000 nM | 240 nM | CC(C)CC(=O)N[C@@H](CC(C)C)C(=O)N[C@H](C(=O)N[C@@H](Cc1ccccc1)[C@@H](N)CC(=O)N[C@H](COc1cccnc1)C(C)C)C(C)C [Compound 43, N-[(S)-2-Methyl-1-(pyridin-3-yloxymethyl)propyl]-(3S,4S)-3-amino-4-{(S)-3-methyl-2-[(S)-4-methyl-2-(3-methylbutyrylamino)-pentanoylamino]butyrylamino}-5-phenylpentanamide] |
| > 30000 nM | 190 nM | CC(C)CCNC(=O)[C@H](C)NC(=O)C[C@H](N)[C@H](Cc1ccccc1)NC(=O)[C@@H](NC(=O)Cc1cccc(OC(F)(F)F)c1)C(C)C [Compound 35, N-[(S)-1-(3-Methylbutylcarbamoyl)-ethyl]-(3S,4S)-3-amino-4-{(S)-3-methyl-2-[2-(3-trifluoromethoxyphenyl)acetylamino]-butyrylamino}-5-phenylpentanamide] |
| > 30000 nM | 48 nM | CC[C@H](C)[C@H](NC(=O)Cc1cccc(OC(F)(F)F)c1)C(=O)N[C@@H](Cc1ccccc1)[C@@H](N)CC(=O)N[C@H](C(=O)N[C@H](CO)C(C)C)[C@@H](C)CC [Compound 41, N-{(2S,3S)-1-[1-((S)-Hydroxymethyl)-2-methylpropylcarbamoyl]-2-methylbutyl)-3-(S)-amino-4-{(S)-(2S,3S)-3-methyl-2-[2-(3-trifluoromethoxyphenyl)acetylamino]-pentanoylamino}-5-phenylpentanamide] |
| > 30000 nM | 400 nM | CC[C@H](C)[C@H](NC(=O)C[C@H](N)[C@H](Cc1ccccc1)NC(=O)[C@@H](NC(=O)[C@H](CC(C)C)NC(=O)CC(C)C)C(C)C)C(=O)NCC1CC1 [Compound 30, N-[(1S,2S)-1-(Cyclopropylmethyl-carbamoyl)-2-methylbutyl]-(S)-3-(S)-amino-4-{(S)-3-methyl-2-[(S)-4-methyl-2-(3-methylbutyrylamino)-pentanoylamino]butyrylamino}-5-phenylpentanamide] |
| > 30000 nM | 230 nM | CCc1cccc(CC)c1NC(=O)C[C@H](N)[C@H](Cc1ccccc1)NC(=O)[C@@H](NC(=O)[C@H](CC(C)C)NC(=O)CC(C)C)C(C)C [Compound 38, N-(2,6-Diethylphenyl)-(3S,4S)-3-amino-4-{(S)-3-methyl-2-[(S)-4-methyl-2-(3-methyl-butyrylamino)pentanoylamino]butyryl-amino}-5-phenylpentanamide] |
| > 30000 nM | 39 nM | CC(C)CC(=O)N[C@@H](CC(C)C)C(=O)N[C@H](C(=O)N[C@@H](Cc1ccccc1)[C@@H](N)CC(=O)N[C@H](COc1ccc(F)cc1F)C(C)C)C(C)C [Compound 44, N-[(S)-1-(2,4-Difluorophenoxymethyl)-2-methylpropyl]-(3S,4S)-3-amino-4-{(S)-3-methyl-2-[(S)-4-methyl-2-(3-methylbutyryl-amino)pentanoylamino]butyrylamino}-5-phenylpentanamide] |
| > 30000 nM | 12 nM | CC[C@H](C)[C@H](NC(=O)C[C@H](N)[C@H](Cc1ccccc1)NC(=O)[C@@H](NC(=O)Cc1cccc(OC(F)(F)F)c1)C(C)C)C(=O)N[C@H](C(=O)O)C(C)C [Compound 32, (S)-2-[(2S,3S)-2-((3S,4S)-3-Amino-4-{(S)-3-methyl-2-[2-(3-trifluoromethoxyphenyl)-acetylamino]butyrylamino}-5-phenyl-pentanoylamino)-3-methylpentanoyl-amino]-3-methylbutyric acid] |
| > 30000 nM | 800 nM | CCc1cccc(CC)c1NC(=O)C[C@H](N)[C@H](Cc1ccccc1)NC(=O)[C@@H](NC(=O)CCCc1ccccc1)C(C)C [Compound 40, N-(2,6-Diethylphenyl)-(3S,4S)-3-amino-4-[(S)-3-methyl-2-(4-phenylbutyrylamino)butyrylamino]-5-phenylpentanamide] |
